Measured values reported in PMC11477000, “Enantioselective Binding of Proton Pump Inhibitors to Alpha1-Acid Glycoprotein and Human Serum Albumin—A Chromatographic, Spectroscopic, and In Silico Study” (International Journal of Molecular Sciences, 2024).
Values joined by “and” are separate entries in the source; they are usually repeats but may differ in a detail not shown here. Equal values may be shown once. Read-outs that look alike come from different tables or passages of the source.

Key:
BSA = conditions: racemic, ref [39]; cited from earlier work
HSA [1] = target: T1, HSA (Homo sapiens, UniProt P02768); conditions: ref [41]; cited from earlier work
T1 construct: purchased Sigma-Aldrich
T1 sequence (P02768 25-609): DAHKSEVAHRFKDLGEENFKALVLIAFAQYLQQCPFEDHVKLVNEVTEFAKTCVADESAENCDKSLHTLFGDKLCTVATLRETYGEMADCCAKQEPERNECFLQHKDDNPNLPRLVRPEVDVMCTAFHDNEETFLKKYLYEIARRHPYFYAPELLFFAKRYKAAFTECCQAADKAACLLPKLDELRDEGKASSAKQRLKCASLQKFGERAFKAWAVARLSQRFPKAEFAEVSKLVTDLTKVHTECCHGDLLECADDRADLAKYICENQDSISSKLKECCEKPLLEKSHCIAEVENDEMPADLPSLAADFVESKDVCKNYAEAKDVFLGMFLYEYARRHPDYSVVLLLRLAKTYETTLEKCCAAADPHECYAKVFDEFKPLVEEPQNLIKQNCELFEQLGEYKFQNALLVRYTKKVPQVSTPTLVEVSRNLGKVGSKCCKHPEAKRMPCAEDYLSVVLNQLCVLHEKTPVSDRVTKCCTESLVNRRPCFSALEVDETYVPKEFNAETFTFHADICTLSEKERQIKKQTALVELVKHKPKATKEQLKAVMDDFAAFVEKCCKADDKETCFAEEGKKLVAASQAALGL

[2] = target: human serum albumin (HSA) (Homo sapiens, UniProt P02768); assay: Bound percentage by HPLC on HSA column, extrapolation to zero organic modifier; assay type: in vitro ADME; conditions: for Bound percentage (b%), average: average of IPA, EtOH, MeOH
Sequence of human serum albumin (HSA) (P02768 25-609): as above
Protocol: (§1) Chromatographic columns containing proteins can be used to determine the percentage of drug binding. A plot of the natural logarithm of the retention factors against the proportion of organic modifiers was created. […] The intercept of these linear equations can be used to calculate the bound percentage according to Equation (4) (see in Section 3.2).
(§2) Chromatographic measurements were carried out on two separate HPLC systems. The AGP binding study was performed on a Waters 2695e chromatographic system paired with a Waters 2996 PDA detector, controlled by Empower 3 FR5 (Waters Corp., Milford, MA, USA), while the HSA binding study was performed on an Agilent 1100 HPLC system, consisting of an inline degasser (G1322A), a quaternary pump (G1311A), an automatic injector (G1329A) paired with sample thermostat (G1330A), a column thermostat (G1316A), and a diode array detector (G1315A) with Agilent Chemstation B04.03-SP2 software (Agilent, Bronnwald, Germany). For the binding studies, two protein-based chiral stationary phases were utilized. The chromatographic binding study for AGP was conducted on a ChromTech Chiral-AGP column (150 mm × 4.0 mm; ChromTech Ltd., Congleton, UK), while the binding study for HSA was performed on a Daicel Chiralpak HSA column (50 mm × 4.0 mm; Daicel Corp., Osaka, Japan). The detection wavelength was 210 nm for all measurements. The stock solutions of PPIs were prepared at a concentration of 1 mg/mL in MeOH. Subsequent dilutions were prepared using water. The injected samples were mixed and diluted from the stock solutions. The final concentration for the eutomer was 0.2 mg/mL, and for the distomer, it was 0.1 mg/mL. A volume of 2 μL was injected. To mitigate the instability of PPIs in aqueous solutions, the samples were kept at a temperature of 4 °C. Cooling the samples to 4 °C prevented significant decomposition for a period of 24 h. After 24 h, new samples were prepared for injection. Chromatographic parameters were calculated based on the following equations. The retention factor (k) was calculated as:(1) k=(tr−t0)/t0 where tr is the retention time of the investigated analyte, and t0 is the dead time, determined as the first peak appearance in the chromatogram. Resolution was calculated based on the following equation:(2) Rs=2(t2−t1)/(w1+w2) where t2 and t1 are the retention times of the second and first eluted enantiomers, respectively, while w is the peak width. The separation factor (α) was calculated as follows:(3) α=k2/k1 where k1 and k2 are the retention factors of the first- and second-eluting enantiomers, respectively. The k values were also used to calculate the protein-bound percentage (b%) using Equation (4):(4) b%=k/1+k×100

AGP = assay: UV titration (Benesi–Hildebrand) with AGP; assay type: binding, human; conditions: n = 3, 1 μM AGP, pH 7.4 phosphate buffer, 24 °C, 278 nm; for Kd: human, pH 7.4, UV titration, read-out: logKAGP ± Stdev (logarithm of stability constant) (converted)
Protocol: (§3) The UV-Vis absorption assay is a straightforward and relatively simple method to examine the interactions between small molecules and macromolecules. Changes in the structure of the protein caused by the interacting ligand can lead to alterations in the absorption spectrum. […] Fixed wavelength measurements were conducted at the absorption maxima of AGP and HSA. […] The change in the absorbance and wavelength maximum in the UV spectra during the titration refers to the complex formation between proteins and PPIs. The Benesi–Hildebrand method was used to determine the stability constants based on Equation (7).
(§4) The absorption spectra were recorded on a Jasco V-750 spectrophotometer (Jasco, Tokyo, Japan) at 24 °C using 1.0 cm path-length quartz cuvettes. Then, 1 μM HSA and AGP were dissolved in a sodium phosphate buffer solution (pH 7.4; 0.1 M) and their concentration was kept constant. The PPIs were dissolved in DMSO, and further diluted with the AGP or HSA solution. Next, 1000 μL of 1 μM HSA and AGP solutions was titrated with the PPI stock solution in 1 μL steps. The concentration of the PPIs was set to 4.00, 7.98, 11.96, 15.94, 19.90, 23.86, 27.81, and 31.75 μM. The binding constants were determined using the Benesi–Hildebrand equation:(7) A0/A−A0=εPPI/εAPPI−εPPI+εPPI/εAPPI−εPPI×1/K×[C] where A0 is the absorbance of the HSA or AGP at 278 nm, A is the absorbance of the formed complex also at 278 nm, εPPI is the extinction coefficient of the actual PPI, εAPPI is the extinction coefficient of the albumin or AGP and PPI complex, K is the binding coefficient, and [C] is the concentration of the investigated PPI. The plot of A0/A − A0 versus C^−1 has a slope of K^−1. All experiments were performed in triplicate.

HSA [3] = target: T1, HSA; conditions: ref [43]; cited from earlier work
HSA [4] = target: T1, HSA; assay: UV titration (Benesi–Hildebrand) with HSA; assay type: binding; conditions: n = 3, 1 μM HSA, pH 7.4 phosphate buffer, 24 °C, 278 nm, read-out: logKHSA ± Stdev. (logarithm of stability constant) (converted)
Protocol: as §3, §4

[5] = test system: α1-acid glycoprotein (AGP); assay: Bound percentage by HPLC on AGP column, extrapolation to zero organic modifier; assay type: in vitro ADME, human; conditions: for Bound percentage (b%), average: average of IPA, EtOH, MeOH
Protocol: as §1
as §2, with “Cooling the samples to 4 °C prevented significant decomposition for a period of 24 h.” left out

[6] = extrapolation to zero percent EtOH
[7] = extrapolation to zero percent IPA
[8] = extrapolation to zero percent MeOH

Structure (SMILES): COc1ccnc(C[S+]([O-])c2nc3cc(-n4cccc4)ccc3[nH]2)c1C (centres unmarked) [Ilaprazole]
- logK (BSA): 5.63

Structure (SMILES): COc1ccc2nc([S@@+]([O-])Cc3ncc(C)c(OC)c3C)[nH]c2c1 [S-omeprazole, esomeprazole]
- logK (HSA [1]): 4.70
- Bound percentage (b%), average [2]: 91.76% and 91.76 ± 1.08%
- Bound percentage (b%) [2, 6]: 92.97%
- Bound percentage (b%) [2, 7]: 91.15%
- Bound percentage (b%) [2, 8]: 91.03%
- Kd (AGP): 33.9 µM
- logK (HSA [3]): 3.73
- Kd (HSA [4]): 95.5 µM

Structure (SMILES): COCCCOc1ccnc(C[S@+]([O-])c2nc3ccccc3[nH]2)c1C [S-rabeprazole]
- Bound percentage (b%), average [5]: 97.98% and 97.98 ± 1.51%
- Bound percentage (b%) [5, 6]: 98.17%
- Bound percentage (b%) [5, 7]: 99.39%
- Bound percentage (b%) [5, 8]: 96.39%
- Bound percentage (b%), average [2]: 88.84% and 88.84 ± 0.59%
- Bound percentage (b%) [2, 6]: 88.85%
- Bound percentage (b%) [2, 7]: 88.24%
- Bound percentage (b%) [2, 8]: 89.42%
- Kd (AGP): 17.4 µM
- Kd (HSA [4]): 38 µM

Structure (SMILES): COc1ccnc(C[S+]([O-])c2nc3ccc(OC(F)F)cc3[nH]2)c1OC (centres unmarked) [Pantoprazole]
- logK (BSA): 5.04

Structure (SMILES): COc1ccc2[nH]c([S@+]([O-])Cc3ncc(C)c(OC)c3C)nc2c1 [R-omeprazole]
- Bound percentage (b%), average [2]: 91.76% and 91.76 ± 1.08%
- Bound percentage (b%) [2, 6]: 92.97%
- Bound percentage (b%) [2, 7]: 91.15%
- Bound percentage (b%) [2, 8]: 91.03%
- Kd (AGP): 20.4 µM
- logK (HSA [3]): 3.50
- Kd (HSA [4]): 33.9 µM

Structure (SMILES): COCCCOc1ccnc(C[S@@+]([O-])c2nc3ccccc3[nH]2)c1C [R-rabeprazole, dexrabeprazole]
- Bound percentage (b%), average [5]: 96.78% and 96.78 ± 1.77%
- Bound percentage (b%) [5, 6]: 96.69%
- Bound percentage (b%) [5, 7]: 98.60%
- Bound percentage (b%) [5, 8]: 95.07%
- Bound percentage (b%), average [2]: 88.84% and 88.84 ± 0.59%
- Bound percentage (b%) [2, 6]: 88.85%
- Bound percentage (b%) [2, 7]: 88.24%
- Bound percentage (b%) [2, 8]: 89.42%
- logKAGP ± Stdev (logarithm of stability constant) (AGP; UV titration): 4.59 ± 0.03
- Kd (AGP): 31.6 µM
- Kd (HSA [4]): 46.8 µM
